Here are results for four molecules from patent US20110112148A1, “INDOLINE COMPOUNDS” (Ferrer Internacional S.A., priority 2007, published 2011).

This assay has as its target T1, recombinant human MT1 receptor (Homo sapiens, UniProt P48039).
T1 construct: expressed in transfected cells; host or cells: unnamed cell line co-expressing mitochondrial apoaequorin and the Galpha16 subunit
As to the kind of experiment: Agonist activity on MT1 receptors (aequorin luminescence, Gα16 co-expressing cell line). The class given is cell-based. To be noted: percentage activity with respect to the reference agonist at its EC100; for MT1 agonism, 1 nm: compound at 1 nm; for MT1 agonism, 100 nm: compound at 100 nm. From the text:
Determination of the Agonist Activity on MT1 Receptors
In order to screen compounds for the MT1 receptor a cell line is used that is characterised by stable overexpression of the recombinant human MT1 receptor in a cell line that in turn co-expresses mitochondrial apoaequorin and the Gα16 subunit.
The Ga16 subunit belongs to the G protein family, formed by GPCR, wherein the transduction of intracellular signals occurs via phospholipase (PLC). PLC activation produces an increase in inositol-triphosphate levels that leads to an increase in intracellular calcium. Ga16 overexpression thus allows an increase in intracellular calcium levels that is independent and compatible with the study receptor's own signal transduction pathway.
Following its binding to calcium, the aequorin oxidises coelenterazine to coelenteramide, a reaction that releases CO2 and light.
The trial protocol for the screening of possible agonists consists in collecting the cells and keeping them in suspension overnight in the presence of coelenterazine in order to reconstitute aequorin. On the following day the cells are injected on a plate where the compounds to be screened are diluted, and the luminescence released is read immediately. When wishing to study the possible antagonism of the same compounds, the reference agonist compound is added in the same well after 15-30 min from the first injection and the luminescence released is assessed.
Agonist activity is calculated as percentage activity with respect to the reference agonist at the concentration corresponding to its EC100. Antagonist activity is expressed as percentage inhibition over the reference agonist activity at the concentration corresponding to its EC80.

T1 sequence (P48039 whole entry): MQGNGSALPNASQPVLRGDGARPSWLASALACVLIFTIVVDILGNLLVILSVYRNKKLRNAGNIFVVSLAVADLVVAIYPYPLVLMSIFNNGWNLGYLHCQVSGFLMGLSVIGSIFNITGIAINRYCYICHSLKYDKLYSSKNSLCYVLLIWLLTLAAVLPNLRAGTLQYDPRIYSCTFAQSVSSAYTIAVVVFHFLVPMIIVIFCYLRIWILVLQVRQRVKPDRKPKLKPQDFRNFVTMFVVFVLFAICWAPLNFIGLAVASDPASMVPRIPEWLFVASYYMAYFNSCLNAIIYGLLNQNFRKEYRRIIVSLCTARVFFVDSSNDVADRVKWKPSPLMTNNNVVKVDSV

Take `COc1ccc2c(c1)N(CCNC(C)=O)CC2` [Example 1, N-[2-(6-methoxy-2,3-dihydro-indol-1-yl)-ethyl]-acetamide]: the MT1 agonism, 1 nm stood at 13.1% and the MT1 agonism, 100 nm worked out at 92%.

Turning to `COc1ccc2c(c1)N(CCNC(=O)C(F)(F)F)CC2` [Example 4, 2,2,2-trifluoro-N-[2-(6-methoxy-2,3-dihydro-indol-1-yl)-ethyl]-acetamide], the MT1 agonism, 1 nm came out at 14.6% and the MT1 agonism, 100 nm was found to be 94%.

Regarding `CC(=O)NCCN1CCc2ccc3c(c21)CCO3` [N-[2-(2,3,7,8-tetrahydro-1H-furo[2,3-g]indol-1-yl)-ethyl]-acetamide, reference compound], the MT1 agonism, 1 nm was 13.9% and the MT1 agonism, 100 nm is 76.6%.

For the molecule `COc1ccc2c(c1)N(C(C)CNC(C)=O)CC2` (centres unmarked) [Example 5, N-[2-(6-methoxy-2,3-dihydro-indol-1-yl)-propyl]-acetamide], the MT1 agonism, 1 nm is 11.5% and the MT1 agonism, 100 nm is 89.8%.
